Legend:
CEM-SS = assay: Cytotoxic concentration required to reduce viability of uninfected cells in CEM-SS cell line; type: functional; conditions: Homo sapiens
[1] = test system: Human immunodeficiency virus 1; assay: Effective concentration required to inhibit HIV-1 replication in CEM-SS cell line; type: functional, organism-based; conditions: Human immunodeficiency virus 1, CEM-SS
[2] = test system: Human immunodeficiency virus 1; assay: Effective concentration required to inhibit HIV-1 replication in CEM/TK cell line; type: functional, organism-based; conditions: Human immunodeficiency virus 1, CEM-TK(-)
[3] = test system: Human immunodeficiency virus 1; assay: Effective concentration required to inhibit HIV-1 replication in MT-4 cell line; type: functional, organism-based; conditions: Human immunodeficiency virus 1, MT4
MT4 = assay: Cytotoxic concentration required to reduce viability of uninfected cells in MT-4 cell line; type: functional; conditions: Homo sapiens
CEM-TK(-) (Homo sapiens) = assay: Compound was tested for its cytotoxic concentration required to reduce viability of uninfected cells in CEM/TK(-) cell line
CEM/TK- (Homo sapiens) = assay: Cytotoxic concentration required to reduce viability of uninfected cells in CEM/TK cell line

COC(=O)C(C)(C)NP(=O)(OCCSC(=O)C(C)(C)C)OCC1OC(n2cc(C)c(=O)[nH]c2=O)CC1N=[N+]=[N-] (stereo not given)
CC50 (CEM-SS): > 100000 nM | EC50 [1]: 80 nM | EC50 [2]: 2900 nM | EC50 [3]: 540 nM | CC50 (MT4): > 100000 nM | CC50 (CEM-TK(-) (Homo sapiens)): > 100000 nM

COC(=O)[C@@H](C)NP(=O)(OCCSC(=O)C(C)(C)C)OCC1OC(n2cc(C)c(=O)[nH]c2=O)CC1N=[N+]=[N-] (stereo not given in full)
CC50 (CEM-SS): > 100000 nM | EC50 [1]: 70 nM | EC50 [2]: 2400 nM | EC50 [3]: 450 nM | CC50 (MT4): > 100000 nM | CC50 (CEM/TK- (Homo sapiens)): > 100000 nM

COC(=O)C(C)NP(=O)(OCCSC(=O)C(C)(C)C)OCC1OC(n2cc(C)c(=O)[nH]c2=O)CC1N=[N+]=[N-] (stereo not given)
CC50 (CEM-SS): > 100000 nM | EC50 [1]: 20 nM | EC50 [2]: 2100 nM | EC50 [3]: 420 nM | CC50 (MT4): > 100000 nM | CC50 (CEM/TK- (Homo sapiens)): > 100000 nM

CCC(NP(=O)(OCCSC(=O)C(C)(C)C)OCC1OC(n2cc(C)c(=O)[nH]c2=O)CC1N=[N+]=[N-])C(=O)OC (stereo not given)
CC50 (CEM-SS): > 100000 nM | EC50 [1]: 6 nM | EC50 [2]: 2400 nM | EC50 [3]: 130 nM | CC50 (MT4): > 100000 nM | CC50 (CEM/TK- (Homo sapiens)): > 100000 nM

COC(=O)[C@H](CO[Si](C)(C)C(C)(C)C)NP(=O)(OCCSC(=O)C(C)(C)C)OCC1OC(n2cc(C)c(=O)[nH]c2=O)CC1N=[N+]=[N-] (stereo not given in full)
CC50 (CEM-SS): > 10000 nM | EC50 [1]: 100 nM | EC50 [2]: 1000 nM | EC50 [3]: 400 nM | CC50 (MT4): > 10000 nM | CC50 (CEM/TK- (Homo sapiens)): > 10000 nM

COC(=O)CNP(=O)(OCCSC(=O)C(C)(C)C)OCC1OC(n2cc(C)c(=O)[nH]c2=O)CC1N=[N+]=[N-] (stereo not given)
CC50 (CEM-SS): > 100000 nM | EC50 [1]: 9 nM | EC50 [2]: 1400 nM | EC50 [3]: 450 nM | CC50 (MT4): > 100000 nM | CC50 (CEM/TK- (Homo sapiens)): > 100000 nM

COC(=O)[C@H](C)NP(=O)(OC[C@H]1O[C@@H](n2cc(C)c(=O)[nH]c2=O)C[C@@H]1N=[N+]=[N-])Oc1ccccc1 (stereo not given in full)
CC50 (CEM-SS): > 100000 nM | EC50 [1]: 50 nM | EC50 [2]: 4300 nM | EC50 [3]: 340 nM | CC50 (MT4): > 10000 nM | CC50 (CEM/TK- (Homo sapiens)): > 100000 nM

Cc1cn(C2CC(N=[N+]=[N-])C(COP(=O)(NC(C)C)OCCSC(=O)C(C)(C)C)O2)c(=O)[nH]c1=O (stereo not given)
CC50 (CEM-SS): > 100000 nM | EC50 [1]: 20 nM | EC50 [2]: 750 nM | EC50 [3]: 130 nM | CC50 (MT4): > 100000 nM | CC50 (CEM/TK- (Homo sapiens)): > 100000 nM

COC(=O)[C@H](Cc1ccc(O)cc1)NP(=O)(OCCSC(=O)C(C)(C)C)OCC1OC(n2cc(C)c(=O)[nH]c2=O)CC1N=[N+]=[N-] (stereo not given in full)
CC50 (CEM-SS): > 100000 nM | EC50 [1]: 90 nM | EC50 [2]: 5300 nM | EC50 [3]: 740 nM | CC50 (MT4): > 100000 nM | CC50 (CEM/TK- (Homo sapiens)): > 100000 nM

Cc1cn(C2CC(N=[N+]=[N-])C(COP(=O)(OCCSC(=O)C(C)(C)C)N3CCCCC3)O2)c(=O)[nH]c1=O (stereo not given)
CC50 (CEM-SS): > 100000 nM | EC50 [1]: 20 nM | EC50 [2]: 5200 nM | EC50 [3]: 220 nM | CC50 (MT4): > 100000 nM | CC50 (CEM/TK- (Homo sapiens)): > 100000 nM

COC(=O)[C@H](Cc1ccccc1)NP(=O)(OCCSC(=O)C(C)(C)C)OCC1OC(n2cc(C)c(=O)[nH]c2=O)CC1N=[N+]=[N-] (stereo not given in full)
CC50 (CEM-SS): > 100000 nM | EC50 [1]: 27 nM | EC50 [2]: 2300 nM | EC50 [3]: 250 nM | CC50 (MT4): > 10000 nM | CC50 (CEM/TK- (Homo sapiens)): > 10000 nM

COC(=O)[C@H](C)NP(=O)(OCCSC(=O)C(C)(C)C)OCC1OC(n2cc(C)c(=O)[nH]c2=O)CC1N=[N+]=[N-] (stereo not given in full)
CC50 (CEM-SS): > 100000 nM | EC50 [1]: 54 nM | EC50 [2]: 4300 nM | EC50 [3]: 340 nM | CC50 (MT4): > 100000 nM | CC50 (CEM/TK- (Homo sapiens)): > 100000 nM

COC(=O)[C@H](COC(C)=O)NP(=O)(OCCSC(=O)C(C)(C)C)OCC1OC(n2cc(C)c(=O)[nH]c2=O)CC1N=[N+]=[N-] (stereo not given in full)
CC50 (CEM-SS): > 100000 nM | EC50 [1]: 7 nM | EC50 [2]: 16000 nM | EC50 [3]: 53 nM | CC50 (MT4): > 100000 nM | CC50 (CEM/TK- (Homo sapiens)): > 100000 nM

Cc1cn(C2CC(N=[N+]=[N-])C(COP(=O)(Nc3ccccc3)OCCSC(=O)C(C)(C)C)O2)c(=O)[nH]c1=O (stereo not given)
CC50 (CEM-SS): > 10000 nM | EC50 [1]: 5 nM | EC50 [2]: > 10000 nM | EC50 [3]: 700 nM | CC50 (MT4): > 10000 nM | CC50 (CEM/TK- (Homo sapiens)): > 10000 nM

Cc1cn([C@H]2C[C@H](N=[N+]=[N-])[C@@H](CO)O2)c(=O)[nH]c1=O [ZIDOVUDINE]
CC50 (CEM-SS): > 100000 nM | EC50 [1]: 6 nM | EC50 [2]: > 100000 nM | EC50 [3]: 17 nM | CC50 (MT4): 75000 nM | CC50 (CEM/TK- (Homo sapiens)): > 100000 nM
